# Like-named read-outs stand apart in the source and are kept apart here. Where no end group is shown, it is not given here.
# What was measured:
# [1] = tested on: MDA-MB-435 breast carcinoma cells; assay: Inhibition of MDA-MB-435 cell adhesion to immobilized peptide 678 (microscopic adhesion assay); assay type: cell-based, human
# Procedure: (§1) Adhesion assays of cells other than small cell lung carcinoma (SCLC)-Adhesion was measured on polystyrene or glass substrates coated with peptides or proteins as previously described (Guo et al., 1992). Peptides dissolved in PBS at 0.4 to 50 μM were incubated in polystyrene microliter plate wells overnight at 4° C. The wells were washed 3 times with distilled water. Adsorbed peptide was quantified using the BCA assay (Pierce Chemical) measuring absorbance at 570 and 630 nm as described by the supplier's protocol. The assay for adsorption was calibrated using purified peptide in solution as a standard. After blocking with 1% BSA in Dulbecco's PBS, adhesion assays were performed by adding cells suspended in DMEM (BAE cells) or medium 199 (human cells) containing 1 mg/ml BSA. Cell attachment and spreading was quantified microscopically.
# [2] = tested on: chick chorioallantoic membrane (CAM) angiogenesis; assay: Chick chorioallantoic membrane (CAM) angiogenesis assay; assay type: in vivo, chicken; settings: for Angiogenic response (% inhibition): relative to control gels, mean ± SD
# Procedure: Fertilized Leghorn chicken eggs were obtained from Ramona Duck farm (Westminster, Calif.). At day 3 of development, the embryos were placed on 100 mm petri dishes. Assays were performed as previously described (Iruela-Arispe et al., 1999). […] Peptides were filtered on Centricon P100 prior to their analysis on the CAM assays to eliminate traces of endotoxin. Pellets were applied to the outer ⅓ of the CAM, and the assay was performed for 24 h. Detection of capillary growth was done by injection of FITC-dextran in the bloodstream and observation of the pellets under a fluorescent inverted microscope. Positive controls (growth factors and vehicle), as well as negative controls (vehicle alone) were placed in the same CAM and used as reference of 100% stimulation or baseline inhibition (0%), and response to the peptides was determined according to these internal controls. Assays were performed in duplicate in each CAM and in four independent CAMs (total of 8 pellets).
# [3] = tested on: OH1 SCLC cells; assay type: cell-based, human; settings: 72 h
# Procedure: Net, proliferation was determined by the CellTiter assay (Promega) and is presented as mean±SD, n=3. […] The cells were fixed and photographed using Nomarski optics. Bar=100 μm. […] Panel E: α3β1 Integrin ligands cooperate with EGF to inhibit OH1 cell proliferation. […] Net proliferation is presented as a percent of the -EGF control (mean±SD, n=3 for treated groups and n=6 for control groups).
# Proteins and peptides were immobilized on Nunc Maxisorp 96 well plates by overnight incubation with the proteins or peptides dissolved in 50 μl of sterile Dulbecco's PBS. The supernatant fluid was removed, and the wells were incubated for 30 min. in DPBS containing 1% BSA. OH1 cells (1×10^4/well) were added in RPMI containing 15% FCS and incubated for 72 h at 37° in 5% CO2. For assessing inhibition by soluble proteins or peptides, OH1 cells were grown in suspension in Nunclon 96 well tissue culture plates using the same medium.
# [4] = tested on: HDME cells; assay: HDME cell spreading on coated substrates; assay type: cell-based, human
# Procedure: Spreading was determined microscopically for cells with no additions, in the presence of 10 μM peptide 678, or in the presence of 30 μM of the control peptide 690. Results are presented as mean±SD, n=3. […] The percent spread cells was determined at 60 min.
# as §1
# [5] = tested on: MDA-MB-435 cells; assay: MDA-MB-435 cell chemotaxis in modified Boyden chambers; assay type: cell-based, human; settings: peptide in lower well; 7 h
# Procedure: FIGS. 10A and 10B display the measurement of MDA-MB-435 cell chemotaxis. Panel A: Dose-dependence for stimulation of MDA-MB-435 cell motility by peptide 678 added to the lower well of a modified Boyden chamber. Cells migrated to the lower surface of an 8 μm pore polycarbonate filter were quantified microscopically after 7 h, mean±SD, n=3 for a representative experiment. […] Chemotaxis of untreated cells (striped bars) or cells treated with 10 nM IGF1 in the upper chamber (solid bars) was determined after 7 h and is presented as mean±S.D., n=3.
# [6] = tested on: MDA-MB-435 cells; assay: MDA-MB-435 cell spreading on matrix proteins, inhibition by soluble peptide; assay type: cell-based, human; settings: 10 μM peptide 678 (FIG. 4A)
# Procedure: FIGS. 4A and 4B are graphs illustrating the inhibition of breast carcinoma cell spreading on matrix proteins by peptide 678. […] Cell spreading is presented as mean±SD, n=3. Panel B: Inhibition of MDA-MB-435 cell attachment to surfaces coated with 10 μM peptide 678 (●) or laminin peptide GD6 (◯) was measured in the presence of the indicated concentrations of peptide 678 added in solution.
# as §1
# [7] = tested on: HUVE cells; assay: HUVE cell proliferation; assay type: cell-based, human
# Procedure: Briefly, 100 μl of a 5×10^4 cell/ml suspension of BAE cells were seeded in triplicate into 96 well tissue culture plate in DMEM medium containing 1% FCS, 10 ng/ml of FGF2 and peptides at 1-40 μM concentrations. Cells were incubated for 72 h, and proliferation was measured using the Celltiter tetrazolium assay (Promega). […] Proliferation was determined at 72 h, and is presented as a percent of the control, mean±S.D., n=3 for experimental points and n=6 for control.
# Cell proliferation was measured using the Cell-Titer colorimetric assay (Promega) as previously described (Vogel et al., 1993). A 100 μl volume of BAE cell suspension at 50,000 cells/ml in DMEM containing 1% FBS and supplemented with 10 ng/ml FGF2 was plated in triplicate in 96 well tissue culture plates either in the presence of peptides in solution or in wells that were pre-coated with 100 μl of the peptides at […] overnight and aspirated just before adding cells. Cells were grown for 72 hours at 37° C. in a humidified incubator with 5% CO2. HUVEC proliferation was measured by the same protocol but using medium 199 containing 5% FCS without heparin. HDME cell proliferation was measured in MCDB growth medium without heparin, VEGF, or FGF2.
# [8] = tested on: HDME cells; assay: HDME cell proliferation; assay type: cell-based, human
# Procedure: (§2) Briefly, 100 μl of a 5×10^4 cell/ml suspension of BAE cells were seeded in triplicate into 96 well tissue culture plate in DMEM medium containing 1% FCS, 10 ng/ml of FGF2 and peptides at 1-40 μM concentrations. Cells were incubated for 72 h, and proliferation was measured using the Celltiter tetrazolium assay (Promega). […] Proliferation was determined at 72 h, and is presented as a percent of the control, mean±S.D., n=3 for experimental points and n=6 for control. […] FIG. 19E: HDME cell proliferation in MCDB growth medium with 5% FCS was determined in the presence of 10 ng/ml FGF2 and the indicated concentrations of TSP1 added in the medium (Δ) or immobilized on the substrate (●) or in wells coated with the indicated concentrations of peptide 678 (●).
# (§3) Cell proliferation was measured using the Cell-Titer colorimetric assay (Promega) as previously described (Vogel et al., 1993). A 100 μl volume of BAE cell suspension at 50,000 cells/ml in DMEM containing 1% FBS and supplemented with 10 ng/ml FGF2 was plated in triplicate in 96 well tissue culture plates either in the presence of peptides in solution or in wells that were pre-coated with 100 μl of the peptides at 40° C. overnight and aspirated just before adding cells. Cells were grown for 72 hours at 37° C. in a humidified incubator with 5% CO2. […] HDME cell proliferation was measured in MCDB growth medium without heparin, VEGF, or FGF2.
# [9] = tested on: MDA-MB-435 breast carcinoma cells
# Procedure: MDA-MB-435 cell adhesion to microliter plate wells coated with 5 uM peptide 678 was determined in the presence of the indicated concentrations of soluble carboxamidomethyl-peptide 716 or peptide 716 covalently linked to FICOLL™ as previously described (Guo et al., 1997). After washing twice to remove unattached cells, adherent cells were quantified by detection of cellular hexosaminidase using p-nitrophenyl-N-acetylglucosaminide as substrate. Released p-nitrophenol was detected by absorbance at 405 nm. Results are mean+/−SD, n=3.
# In this case, the adherent cells are quantified by detection of cellular hexosaminidase using p-nitrophenyl-N-acetylglucosaminidine as substrate. Released p-nitrophenol is detected by absorbance at 405 nm.
# [10] = tested on: BAE cells; settings: added in solution
# Procedure: as §2, §3
# [11] = tested on: BAE cells
# Procedure: Direct adhesion of BAE cells to the adsorbed peptides or uncoated substrate (control) are presented as mean±SD, n=3. […] Two flasks of BAE cells were grown to confluence. One flask was harvested and replated in fresh medium at 25% confluency. Fresh medium was added at the same time to the second flask. After 16 h, cells from both flasks were dissociated using EDTA and adhesion was measured on substrates coated with 40 μg/ml TSP1, 10 μg/ml vitronectin, 20 μg/ml plasma fibronectin, or 5 μg/ml type I collagen. The percent spread cells after 60 min is presented as mean±SD, n=3 for a representative experiment.
# Results are expressed as percent of the response for untreated cells, mean±S.D., n=3.
sequence,measurement,setting,value
FQGVLQNVRFVF [Peptide 678],IC50,"[1]; Table 3, 5 μM peptide 678, read-out: IC50 (μM), inhibition of MDA-MB-435 cell adhesion to immobilized peptide 678",3.5 µM
same,IC50,"[1]; microscopic adhesion assay, polystyrene coated with 5 μM peptide 678, peptides in solution, read-out: Inhibition of peptide 678 (IC50)",3.5 µM
same,Angiogenic response (% inhibition),[2]; 5 μM peptide,2 ± 5%
same,Angiogenic response (% inhibition),[2]; 10 μM peptide,17 ± 7%
same,Angiogenic response (% inhibition),[2]; 20 μM peptide,37 ± 9%
same,angiogenesis stimulated by FGF2,[2]; 20 micromolar,68±5 % of control
same,angiogenesis stimulated by VEGF,[2]; 20 micromolar,73±7 % of control
same,angiogenesis stimulated by a mixture of both growth factors,[2]; 20 micromolar,59±5 % of control
same,IC50,[3],6 µM
same,percent spread HDME cells on immobilized substrate,[4]; cells from sparse culture,28%
same,percent spread HDME cells on immobilized substrate,[4]; cells harvested from a confluent monolayer,No spreading
same,concentration of maximal chemotactic response,[5],10 µM
same,inhibition of MDA-MB-435 spreading on TSP1 and murine laminin-1/entactin,[6],strongly inhibited
same,inhibition of MDA-MB-435 spreading on fibronectin or type IV collagen,[6],did not inhibit
same,"HUVE cell proliferation, peptide in solution",[7]; added in solution,significantly inhibited
same,HUVE cell proliferation on immobilized peptide,[7]; immobilized on the substrate,increased their proliferation
same,HDME cell proliferation after plating on immobilized substance,[8],enhancement
same,IC50,[9],15 µM
same,inhibition of BAE cell proliferation,[10],inhibited
same,inhibition of BAE cell spreading on fibronectin or vitronectin substrates,[11],did not inhibit
same,inhibition of BAE spreading on fibronectin,[11]; 30 μM (FIG. 12),did not inhibit
same,inhibition of density-dependent BAE spreading on intact TSP1 and the TSP1 peptide,[11]; peptide added in solution,inhibited
same,endothelial cell attachment on immobilized peptide,[11]; peptides adsorbed at 10 μM (FIG. 11A),attached specifically
